The text below walks through data of article PMC5349447, “Applying a high-throughput fluorescence polarization assay for the discovery of chemical probes blocking La:RNA interactions in vitro and in cells” (PLoS ONE, 2017).

One data set has as its system La-RRM1+2:fD1 complex. Briefly: EMSA, compound competition, La-RRM1+2:fD1. The format is binding, human. The settings on record: La-RRM1+2 60 nM, fD1 50 nM. The procedure: (§1) 12% native TBE polyacrylamide gels were prepared in a Mini-PROTEAN Tetra Handcast System (BioRad). The gel was pre-run for 30 min at 140 V in 1x TBE buffer (45 mM Tris/HCl pH 8.5, 45 mM boric acid, 1 mM EDTA). To prepare the RNA-mix, fluorescence labeled RNA oligoribonucleotides (oligos) were diluted in fluorescence polarization buffer (20 mM Tris/HCl (pH 7.4), 150 mM NaCl, 3.0 mM MgCl2, 0.5 mM EDTA, 0.05% (v/v) IGEPAL), mixed for 10 min at 80°C, and then immediately placed on ice for at least 5 min. All RNA oligos were used at a final concentration of 50 nM. Recombinant La protein was diluted in D-buffer (20 mM Tris/ HCl (pH 7.4), 150mM NaCl, 3mM MgCl2, 0.5mM EDTA, 5% glycerol) and placed on ice until use.
(§2) La titration was performed at final concentrations of 20, 40, 60, 100, 200, 300, 400, 500, 600 nM La. Three different La concentrations were used for compound studies: 60 nM for fD1 RNA, 200 nM for fPolyU RNA, and 150 nM for TOPf RNA studies. Two μl of diluted compound (diluted in 100% DMSO) or 2 μl 100% DMSO (control reaction) was combined with 8 μl La-mix in a 96-well plate. 10 μl RNA-mix was added, mixed for 2 min, and incubated for 10 min at RT in the dark. […] The La-RNA complex (La-RNP) formation was quantified using the ImageQuant TL software. […]
For orientation: Mobility shift assays separate free from complexed probe on a gel.

The next data set has as its system MRC5 cells. Briefly: Cell toxicity, CyQUANT cell number, MRC5. The format is cell-based, human. The conditions noted are these: 48 h, up to 150 μM. The procedure:
(§3) Normal fibroblast MRC5 and human embryonic kidney HEK293 cells were purchased from ATCC. Head and neck squamous cell carcinoma cell lines UM-SCC 22A (SCC 22A) and UM-SCC 22B (SCC 22B) were described elsewhere. MRC5 cells were cultured in EMEM plus 10% FBS; SCC 22A, SCC 22B, and HEK293 cells were cultured in advanced DMEM (Gibco) containing 2 mM L-glutamine (Life Technology) and 10% FBS. All cell lines were tested for mycoplasma contamination by applying a MycoSensor PCR Assay kit according to the manufacturer’s instructions (Agilent Technologies).
(§4) To test for cell toxicity the compounds were dissolved in 100% DMSO to a concentration of 100 mM. Subsequently, compounds were diluted in media to 10 mM (10% DMSO), 1 mM (1% DMSO) and tested at 150, 125, 100, 75, 50, 25 μM in SCC 22B and MRC5 cells. To reach this concentration compounds (stock 1 mM, 1% DMSO) were diluted in the cell culture dish (96-well format, 100 μl final volume) as follows: 150 μM = 6.7 fold (final DMSO: 0.15%); 125 μM = 8.0 fold (final DMSO: 0.125%); 100 μM = 10 fold (final DMSO: 0.1%); 75 μM = 13.3 fold (final DMSO: 0.075%); 50 μM = 20 fold (final DMSO: 0.05%); and 25 μM = 40 fold (final DMSO: 0.025%). As a control the highest DMSO concentration of 0.15% was used. Cells were cultured in appropriate media (see above) for 48h. Subsequently, cells were washed twice with 1x PBS and quantified after staining with fluorescence dye (CyQUANT®, Life Technologies). For this experiments 3x10^4 of MRC5 and 1x10^4 SCC 22B cells were plate the day before the experiment.

A further data set relates to T1, La:fPolyU complex.
T1 construct: His; made in house; host or cells: E. coli BL21
Briefly: EMSA, compound competition, La-WT:fPolyU. The format is binding, human. The procedure: as §1, §2

For another data set, the system named is T2, La-WT:fD1-RNA complex.
T2 construct: His; made in house; host or cells: E. coli BL21
Briefly: EMSA, compound competition, La-WT:fD1. The format is binding, human. The settings on record: La-WT 60 nM, fD1 50 nM. The procedure: as §1
La titration was performed at final concentrations of 20, 40, 60, 100, 200, 300, 400, 500, 600 nM La. Three different La concentrations were used for compound studies: 60 nM for fD1 RNA, 200 nM for fPolyU RNA, and 150 nM for TOPf RNA studies. Two μl of diluted compound (diluted in 100% DMSO) or 2 μl 100% DMSO (control reaction) was combined with 8 μl La-mix in a 96-well plate. 10 μl RNA-mix was added, mixed for 2 min, and incubated for 10 min at RT in the dark. Final concentrations in the reaction: 18 mM Tris/HCl (pH 7.4), 135 mM NaCl, 2.7 mM MgCl2, 0.45 mM EDTA, 0.025% (v/v) IGEPAL, 2% glycerol, 10% DMSO). Samples were loaded onto the pre-run gel without any loading buffer. Gels were run at 160 V for 40 min in the dark. The gels were carefully transferred to a clear plastic wrap and scanned using a Typhoon FLA900 imager. The La-RNA complex (La-RNP) formation was quantified using the ImageQuant TL software.
Next we used our established EMSA to test whether compound C2 and C6 can compete against the three RNA oligos: fD1, fPolyU, and TOPf. All of the EMSA reactions were loaded in the following order: lane 1 contains the RNA oligo alone; lane 2 contains the RNA oligo plus La protein at concentration that shifts 50% of the RNA oligo (positive control); lanes 3–9 contain the RNA oligo, La protein and decreasing concentrations of the compound; and lane 10 contains the RNA oligo and the highest compound concentration (negative control).

The test system of the next data set is SCC 22B cells. Briefly: Cell toxicity, CyQUANT cell number, SCC 22B. The conditions noted are these: for effect on SCC 22B cell numbers: 12.5-150 μM. The format is cell-based, human. As for the experimental part: as §3, §4
For a further data set, the system named is T3, La:TOPf complex.
T3 construct: His; made in house; host or cells: E. coli BL21
Briefly: EMSA, compound competition, La-WT:TOPf. The format is binding, human. The conditions noted are these: TOPf 50 nM. As for the experimental part:
as §1, §2

Molecules are shown by their SMILES. “Also recorded” adds a separate entry of the source.

In the case of `O=C(O)c1ccccc1C(=O)c1ccc(O)cc1O` [C2, 2-(2,4-dihydroxybenzoyl)benzoic acid], the “concentration blocking La-RRM1+2:fD1 complex formation (EMSA)” value in the data set on La-RRM1+2:fD1 complex is given as 5 mM. In the data set with MRC5 cells, the “toxic effect on MRC5 cells (normal fibroblasts)” value (“toxic effect on MRC5 cells” below) is on record as “no toxic effect”. Besides, the “concentration impairing La:PolyU complex formation (EMSA)” value in the data set with La:fPolyU complex (La-WT 200 nM, fPolyU 50 nM, highest concentration tested) is reported as 10 mM. The “concentration impairing La:fD1 complex formation (EMSA)” value in the data set on La-WT:fD1-RNA complex (highest concentration tested) worked out at 10 mM. Moreover, in the data set on SCC 22B cells (48 h), the “effect on SCC 22B cell numbers” value is on record as “no effect”. The “impairment of La:TOPf complex formation (EMSA), in words” value in the data set with La:TOPf complex (La-WT 200 nM) is on record as “only at the highest concentration tested”.

Take `Cc1ccc(C(=O)c2ccccc2C(=O)O)c(O)c1` [C2.01, 2-(2-hydroxy-4-methylbenzoyl)benzoic acid]: in the data set on MRC5 cells, the “toxic effect on MRC5 cells” value is “no toxic effect”. The “competition for La:fD1 interaction (EMSA), in words” value with La-WT:fD1-RNA complex is recorded as “lower concentration; also recorded: weak competitor”. Besides, in the data set with SCC 22B cells (50 μM, 48 hours), the “tolerance by SCC 22B cells” value is reported as “well tolerated”. In the data set with SCC 22B cells (48 h), the “cytotoxic concentration in SCC 22B cells” value is recorded as “higher than 50 μM”. Also, in the data set with SCC 22B cells (SCC 22B versus MRC5, 48 h), the “selectivity: cancer cell numbers compared to effect on normal MRC5 cells” value is reported as “preferentially reduced cancer cell numbers”.

Take `CCOC(=O)c1ccc2c(c1)C1C=CCC1C(C(=O)O)N2` (centres unmarked) [C6, 8-(ethoxycarbonyl)-3a,4,5,9b-tetrahydro-3Hcyclopenta[c]quinoline-4-carboxylic acid]: the “concentration blocking La-RRM1+2:fD1 complex formation (EMSA)” value in the data set with La-RRM1+2:fD1 complex worked out at 0.01 mM. Besides, in the data set with MRC5 cells, the “toxic effect on MRC5 cells” value is reported as “toxic effect”. Further, in the data set with La:fPolyU complex (compared with La:fD1 and La:TOPf), the “competition for La:fPolyU complex formation (EMSA), in words” value is “weaker competitor”. Besides, the “concentration inhibiting La:fD1 complex formation (EMSA)” value in the data set on La-WT:fD1-RNA complex was 10 µM. Further, the “effect on SCC 22B cell numbers” value with SCC 22B cells (48 h) is on record as “reduced SCC 22B cell numbers even at low concentrations”. In addition, the “concentration blocking La-WT:TOPf complex formation (EMSA)” value in the data set with La:TOPf complex (La-WT 150 nM) is 10 µM.
